Values joined by “and” are separate entries in the source; they are usually repeats but may differ in a detail not shown here. Equal entries are not always repeated. “Also recorded” adds a separate entry of the source. Where two headings read alike, the source gives them in different places.
Experiments:
[1] = target: α-Syn PFFs (Homo sapiens, UniProt P37840); assay: fluorescence spectroscopy titration with α-Syn PFFs; type: binding; details: 0.08 μM fibrils, 5 μM small molecule, result in words
Method: (§1) A fluorescent titration assay was conducted. The fluorescent emission intensities were determined with 0.08 μM of various fibrils in the presence of 5 μM of the small molecules.
(§2) To further investigate the selected compounds binding activities with α-Syn PFFs, fluorescence spectroscopy titrations were conducted to quantitatively measure compounds emission intensity when interacting with different concentrations of α-Syn PFFs. The UV spectrum of each compound was determined and selected for the optimal wavelength to conduct the fluorescence spectroscopic studies.

[2] = tested on: senile plaques or NFT in AD; assay: ex vivo screening on AD patient brain sections; type: binding, human
Text: (§3) Ex vivo screening was extended into human DLB, MSA and AD patient samples. […] Since there are detectable α-Syn aggregates in AD patient brains, these compounds colocalized with p-S129 positive α-Syn inclusions.
(§4) The ex vivo screening was extended into human DLB, MSA and AD patient samples. Neurodegenerative disease of DLB (dementia with Lewy Bodies) and MSA belongs to synucleinopathies with well-defined Lewy bodies.

[3] = tested on: neurons with Aβ or Tau aggregates; assay: neuronal Aβ and Tau aggregation models, fluorescent microscopy; type: cell-based; details: primary cultured neurons
Text: (§5) A series of derivatives were synthesized by including an amino group and a methyl group on benzothiazole to increase the brain permeability and fluorescent signals. The derivatives were subsequently subjected to α-Syn PFFs binding assay and counter-screening with Tau and Aβ PFFs. […] These compounds were screened on the neuronal α-Syn, Tau and Aβ aggregation model for the binding selectivity. Primary cultured neurons were infected with AAV-α-Syn, AAV-Tau FL for 7 days, then treated with α-Syn, Tau or Aβ PFFs. In a few days, the positive compounds were added in the primary neurons with indicated aggregates and analyzed under fluorescent microscopy.
(§6) Primary cultured neurons were infected with AAV-α-Syn, AAV-Tau FL or AAV-APP fragment virus for 7 days, and then treated with α-Syn, Tau or Aβ PFFs by following the described protocols (Volpicelli-Daley et al., 2014). In a few days, the positive compounds were added in the primary neurons with indicated aggregation.

[4] = target: Tau PFFs (Homo sapiens, UniProt P10636); assay: fluorescence spectroscopy titration with Tau PFFs; type: binding; details: 0.08 μM fibrils, 5 μM small molecule; result in words
Method: as §1, §2

[5] = target: T1, Lewy bodies in α-Syn A53T virus injected WT mice brain slices (Homo sapiens, UniProt P37840, A53T); assay: staining of mouse brain slices with Lewy bodies; type: binding
T1 construct: from tissue; host or cells: brain (substantia nigra) of wild-type mice injected with α-Syn A53T virus
Method: (§7) To further explore whether the positive compounds selectively bind to the Lewy bodies, α-Syn A53T patient-derived mutant virus injected WT mice brain slices were employed. These mice display extensive Lewy bodies in the SN.
(§8) To further explore whether the positive compounds selectively bind to the Lewy bodies, a α-Syn A53T patient-derived mutant virus was injected into WT mice brain slices. These mice display extensive Lewy bodies in the Substantial nigra (SN). Moreover, P301S mice expressed neurofibrillary tangles (NFT). The Lewy bodies were labeled with p-α-Syn S129 antibody and the positive aggregates were also labeled with the fluorescent signals from the small molecules. […] However, it was worth noting that almost none of the tested compounds were reactive with NFT.

[6] = plasma-brain ratio study / in vivo PK of EU compounds; set-up: species or system mouse
Method: To address whether the selected compounds penetrate the brain, a plasma-brain ratio study was performed with EU04-03A, EU05-02A and EU05-02B.
To test whether these compounds are brain permeable in vivo, in vivo PK profiling was conducted to determine brain exposure.

[7] = tested on: α-Syn aggregated neurons; assay: neuronal α-Syn aggregation model, fluorescent microscopy; type: cell-based; details: primary cultured neurons, AAV-α-Syn plus α-Syn PFFs
Text: as §5, §6

[8] = target: T2, LBs and LNs in DLB and MSA patient brains (Homo sapiens, UniProt P37840); assay: ex vivo screening on DLB and MSA patient brain sections; type: binding
T2 construct: from tissue; host or cells: brain sections of DLB and MSA patients
Text: as §3, §4

[9] = target: T3, Aβ PFFs (Homo sapiens, UniProt P05067); assay: fluorescence spectroscopy titration with Aβ PFFs; type: binding; details: 0.08 μM fibrils, 5 μM small molecule; result in words
T3 construct: counter-screening with Tau and Aβ PFFs
Method: as §1, §2

[10] = target: T4, senile plaques in 5×FAD and 3×Tg mice brain sections (Homo sapiens, UniProt P05067); assay: staining of mouse brain sections with senile plaques; type: binding
T4 construct: Aβ-enriched senile plaques; from tissue; host or cells: brain sections of 5×FAD and 3×Tg mice

[11] = target: pre-formed fibrils (PFFs) of α-Synuclein (Homo sapiens, UniProt P37840); assay: in vitro binding assay with α-Syn PFFs; details: counter-screening, result in words
Text: The general strategy that was employed to screen the candidate Lewy body PET agents is summarized as follows: (a) To perform in vitro binding assay with Pre-formed fibrils (PFFs) of α-Syn and counter-screening with Tau and Aβ PFFs; (b) To test the positive compounds in the neuronal models with aggregated α-Syn, Tau or […]; (c) To screen with the brain slides from α-Syn mutant A53T virus injected WT mice, and counter-screen with aged 3×Tg (containing both senile plaques and NFT), and aged Tau P301S (NFT) brain sections; (d) to screen the patient brain sections from DLB and MSA against AD; (e) To determine the binding kinetics between α-Syn PFFs and positive hits; (f) To determine the candidates in vivo brain/plasma (B/P) ratios and the brain permeability; (g) To determine the in vivo PET images in α-Syn A53T with candidates and compare its images in 5XFAD and Tau P301S mice.
To perform in vitro binding assay, commercial compounds were screened (See FIG. 7B).
as §5
To perform in vitro binding assay, compounds were screened. […] An amino group and a methyl group in the benzothazole were added to increase its brain permeability and fluorescent signals. […] The synthesized derivatives were subsequently subjected to the α-Syn PFFs binding and counter-screen of Tau and Aβ PFFs as described above.

[12] = tested on: NFT in Tau P301S and 3×Tg mice brain sections; assay: staining of mouse brain sections with NFT; type: binding
Method: as §7, §8

Sequence of Tau PFFs (P10636 whole entry): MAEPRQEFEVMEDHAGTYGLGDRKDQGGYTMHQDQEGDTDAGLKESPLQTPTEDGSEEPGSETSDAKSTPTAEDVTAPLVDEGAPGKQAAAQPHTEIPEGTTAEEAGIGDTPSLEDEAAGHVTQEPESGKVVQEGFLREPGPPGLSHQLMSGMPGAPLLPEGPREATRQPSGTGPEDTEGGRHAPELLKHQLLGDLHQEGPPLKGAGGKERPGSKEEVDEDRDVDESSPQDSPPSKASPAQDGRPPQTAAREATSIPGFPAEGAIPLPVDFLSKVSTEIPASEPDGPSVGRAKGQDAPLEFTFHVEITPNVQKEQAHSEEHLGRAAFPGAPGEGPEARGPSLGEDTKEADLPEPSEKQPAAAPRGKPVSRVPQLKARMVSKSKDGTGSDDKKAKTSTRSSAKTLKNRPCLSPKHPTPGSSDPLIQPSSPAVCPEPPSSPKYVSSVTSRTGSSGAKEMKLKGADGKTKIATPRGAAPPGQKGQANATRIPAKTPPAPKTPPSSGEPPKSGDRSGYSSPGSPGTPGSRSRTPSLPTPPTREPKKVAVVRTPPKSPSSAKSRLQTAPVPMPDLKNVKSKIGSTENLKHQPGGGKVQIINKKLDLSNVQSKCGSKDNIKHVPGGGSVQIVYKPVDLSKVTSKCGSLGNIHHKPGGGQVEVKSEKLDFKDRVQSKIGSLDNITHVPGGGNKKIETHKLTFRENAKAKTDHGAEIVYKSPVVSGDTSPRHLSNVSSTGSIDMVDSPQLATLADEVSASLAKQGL
T3 sequence (P05067 672-713 limits assumed): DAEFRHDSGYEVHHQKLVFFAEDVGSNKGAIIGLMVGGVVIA
T4 sequence (P05067 672-713 limits assumed): as above

**Q.** With `COc1cc(/C=C/c2nc3cc(C)c(N(C)C)cc3s2)ccc1O` [EU-005-02A, (E)-4-(2-(6-(dimethylamino)-5-methylbenzo[d]thiazol-2-yl)vinyl)-2-methoxyphenol] as the compound, how does the “binding to α-Syn PFFs by fluorescent emission intensity” value (“binding to α-Syn PFFs” below) [1] read?
**A.** Its value is “strongly bound to both α-Syn and Tau PFFs”.

**Q.** What about the “binding to α-Syn PFFs” value ([1]; listed as EU-05-02A) of the same compound?
**A.** The value was “but not EU-05-02A and EU-04-03A showed specific association with the PFFs”.

**Q.** What about the “staining of senile plaques or NFT (Aβ, AT8 positive aggregates)” value [2] of the same compound?
**A.** Its value is “barely co-stained with anti-AD or AT8 positive aggregate signals”.

**Q.** What about the “staining of senile plaques or NFT (Aβ, AT8 positive aggregates)” value ([2]; listed as EU05-02A) of the same compound?
**A.** Its value is “barely recognized AT8 positive Tau NFT or Aβ aggregates in AD brains”.

**Q.** What about the “fluorescent signal in neurons with Aβ or Tau aggregates” value [3] of the same compound?
**A.** The value was “negligible effects in neurons with Aβ or Tau aggregates”.

**Q.** What about the “binding to Tau PFFs by fluorescent emission intensity” value [4] of the same compound?
**A.** Its value is “strongly bound to both α-Syn and Tau PFFs”.

**Q.** And the “staining of Lewy bodies (p-α-Syn S129 positive)” value [5]?
**A.** The value was “signals were very weak”.

**Q.** And the B/P ([6]; Male ICR Mouse, 5 mg/kg IV, 0.50 h, single animals, 5 mg/kg)?
**A.** The B/P was 0.65 and 1.62 and 0.69.

**Q.** And the B/P ([6]; Male ICR Mouse, 5 mg/kg IV, 1.00 h, single animals, 5 mg/kg)?
**A.** Its B/P is 0.46 and 0.26.

**Q.** And the B/P ([6]; Male ICR Mouse, 5 mg/kg IV, 2.00 h, single animals, 5 mg/kg)?
**A.** The B/P was 0.49 and 0.34.

**Q.** What about the Kp at 0.5 h ([6]; male, ICR, mouse, brain, iv, 5 mg/kg, Male ICR Mouse, 5 mg/kg IV, 0.50 h, read-out: B/P Mean) of the same compound?
**A.** The Kp at 0.5 h was 0.99.

**Q.** And the Kp at 1 h ([6]; male, ICR, mouse, brain, iv, 5 mg/kg, Male ICR Mouse, 5 mg/kg IV, 1.00 h, single animals, read-out: B/P)?
**A.** Its Kp at 1 h is 0.52.

**Q.** What about the Kp at 1 h ([6]; male, ICR, mouse, brain, iv, 5 mg/kg, Male ICR Mouse, 5 mg/kg IV, 1.00 h, read-out: B/P Mean) of the same compound?
**A.** The Kp at 1 h was 0.41.

**Q.** What about the Kp at 2 h ([6]; male, ICR, mouse, brain, iv, 5 mg/kg, Male ICR Mouse, 5 mg/kg IV, 2.00 h, single animals, read-out: B/P) of the same compound?
**A.** Its Kp at 2 h is 0.42.

**Q.** And the Kp at 2 h ([6]; male, ICR, mouse, brain, iv, 5 mg/kg, Male ICR Mouse, 5 mg/kg IV, 2.00 h, read-out: B/P Mean)?
**A.** Its Kp at 2 h is 0.41.

**Q.** What about the “in vivo half-life / decay” value ([6]; mice, i.v. 5 mg/kg, result in words) of the same compound?
**A.** Its value is “decayed 2 h after i.v. administration”.

**Q.** What about the “fluorescent signal in α-Syn aggregated neurons” value [7] of the same compound?
**A.** The value was “positive for selective binding”.

**Q.** And the “fluorescent signal in α-Syn aggregated neurons” value ([7]; listed as EU05-02A)?
**A.** Its value is “positive signals in α-Syn aggregated neurons”.

**Q.** What about the “staining of LBs and LNs” value [8] of the same compound?
**A.** The value was “robust signals with LBs and LNs”.

**Q.** What about the “staining of LBs and LNs” value ([8]; listed as EU05-02A) of the same compound?
**A.** The value was “co-stained with Lewy bodies”.

**Q.** With `CN(C)c1ccc2nc(/C=C/c3ccc(O)c(Br)c3)sc2c1` [EU-004-02B, (E)-2-bromo-4-(2-(6-(dimethylamino)benzo[d]thiazol-2-yl)vinyl)phenol] as the compound, how does the “binding to α-Syn PFFs” value [1] read?
**A.** Its value is “modest and weak binding activities toward these 3 PFFs”.

**Q.** And the “binding to Tau PFFs by fluorescent emission intensity” value [4]?
**A.** Its value is “modest and weak binding activities toward these 3 PFFs”.

**Q.** What about the “binding to Aβ PFFs by fluorescent emission intensity” value [9] of the same compound?
**A.** The value was “modest and weak binding activities toward these 3 PFFs”.

**Q.** With `Cc1ccc2c(c1)sc(-c1ccc(N(C)C)cc1)[n+]2C.[Cl-]` [ThT, reference compound] as the compound, how does the “staining of senile plaques” value [10] read?
**A.** The value was “co-localized with all of these aggregates in the brain sections”.

**Q.** And the “staining of Lewy bodies (p-α-Syn S129 positive)” value [5]?
**A.** Its value is “co-localized with all of these aggregates in the brain sections; also recorded: co-localized with p-S129 aggregates in the brain sections”.

**Q.** What about the “binding selectivity α-Syn versus Aβ or Tau PFFs” value [11] of the same compound?
**A.** The value was “non-selectively interacted with these PFFs; also recorded: non-selectively interacted with both α-Syn and Tau PFFs”.

**Q.** And the “staining of NFT” value [12]?
**A.** The value was “co-localized with all of these aggregates in the brain sections”.

**Q.** Which results are given for `CCNc1ccc2nc(/C=C/c3ccc(O)c(OC)c3)sc2c1` [EU-004-03A, (E)-4-(2-(6-(ethylamino)benzo[d]thiazol-2-yl)vinyl)-2-methoxyphenol]?
**A.** binding to α-Syn PFFs by fluorescent emission intensity [1]: but not EU-05-02A and EU-04-03A showed specific association with the PFFs; staining of senile plaques or NFT (Aβ, AT8 positive aggregates) [2]: barely co-stained with anti-AD or AT8 positive aggregate signals; staining of senile plaques or NFT (Aβ, AT8 positive aggregates) ([2]; listed as EU04-03A): barely recognized AT8 positive Tau NFT or Aβ aggregates in AD brains; fluorescent signal in neurons with Aβ or Tau aggregates [3]: negligible effects in neurons with Aβ or Tau aggregates; brain permeability ([6]; mice, i.v., result in words, listed as EU04-03A): swiftly penetrated the brain and exhibited much higher brain permeability compared to EU05-02A; also recorded: higher brain permeability than EU05-02B; fluorescent signal in α-Syn aggregated neurons [7]: positive for selective binding; fluorescent signal in α-Syn aggregated neurons ([7]; listed as EU04-03A): positive signals in α-Syn aggregated neurons; staining of LBs and LNs [8]: robust signals with LBs and LNs; staining of LBs and LNs ([8]; listed as EU04-03A): co-stained with Lewy bodies

**Q.** With `COc1cc(/C=C/c2nc3ccc(N(C)C)cc3s2)ccc1O` [EU-004-02A, (E)-4-(2-(6-(dimethylamino)benzo[d]thiazol-2-yl)vinyl)-2-methoxyphenol] as the compound, how does the “staining of Lewy bodies (p-α-Syn S129 positive)” value [5] read?
**A.** The value was “signals were very weak”.
